Measured values taken from patent US20260207761A1, “USE OF DRUG CONJUGATE IN TREATMENT OF TUMOR DISEASE AND METHOD” (priority 2023, published 2026).
Like-named read-outs stand apart in the source and are kept apart here.

Columns and labels:
[1] = for exposure to toxin molecules: 50 mg/kg, after the last administration
[2] = Trial Example 4: pharmacokinetic study, dose-escalation cohort
[3] = conjugate A 25 mg/kg, female, Day 1
[4] = conjugate A 25 mg/kg, female, Day 43
[5] = conjugate A 25 mg/kg, male, Day 1
[6] = conjugate A 25 mg/kg, male, Day 43
[7] = conjugate A 50 mg/kg, female, Day 1
[8] = conjugate A 50 mg/kg, female, Day 43
[9] = conjugate A 50 mg/kg, male, Day 1
[10] = conjugate A 50 mg/kg, male, Day 43
[11] = conjugate A 75 mg/kg, female, Day 1
[12] = conjugate A 75 mg/kg, female, Day 43
[13] = conjugate A 75 mg/kg, male, Day 1
[14] = conjugate A 75 mg/kg, male, Day 43

For `CC[C@@]1(O)C(=O)OCc2c1cc1n(c2=O)Cc2c-1nc1ccccc1c2CCN(C(C)C)S(C)(=O)=O` [toxins], the “exposure to toxin molecules” value ([1]; female monkeys) was 5860 ng·h/mL, the “exposure to toxin molecules” value ([1]; male monkeys) was 3850 ng·h/mL and the AUClast of toxins [1, 3] was 1430 ng·h/mL. For the same compound, the Cmax of toxins [1, 3] was 38.3 ng/mL, the AUClast of toxins [1, 4] was 1860 ng·h/mL and the Cmax of toxins [1, 4] was 65.1 ng/mL. For the same compound, the AUClast of toxins [1, 5] was 1790 ng·h/mL, the Cmax of toxins [1, 5] was 49.0 ng/mL and the AUClast of toxins [1, 6] was 2570 ng·h/mL. The Cmax of toxins [1, 6] was 64.5 ng/mL, the AUClast of toxins [1, 7] was 3970 ng·h/mL and the Cmax of toxins [1, 7] was 113 ng/mL. For the same compound, the AUClast of toxins [1, 8] was 3850 ng·h/mL, the Cmax of toxins [1, 8] was 127 ng/mL and the AUClast of toxins [1, 9] was 4490 ng·h/mL. The Cmax of toxins [1, 9] was 94.0 ng/mL, the AUClast of toxins [1, 10] was 5860 ng·h/mL and the Cmax of toxins [1, 10] was 146 ng/mL. For the same compound, the AUClast of toxins [1, 11] was 5120 ng·h/mL, the Cmax of toxins [1, 11] was 132 ng/mL and the AUClast of toxins [1, 12] was 4680 ng·h/mL. The Cmax of toxins [1, 12] was 137 ng/mL, the AUClast of toxins [1, 13] was 5420 ng·h/mL and the Cmax of toxins [1, 13] was 132 ng/mL. The AUClast of toxins [1, 14] was 4080 ng·h/mL, the Cmax of toxins [1, 14] was 110 ng/mL and the “plasma exposure of the free payload, AUC, relative to conjugate A” value ([2]; first 4-week period) was ~5%. For the same compound, the “plasma exposure of the free payload, Cmax, relative to conjugate A” value ([2]; first 4-week period) was “about 6%” and the half-life ([2]; patients, biweekly dosing regimen) was ~49 h.
